For 19 molecules, Ki results are on record in patent publication US9802928B2 (Merck Sharp & Dohme Corp., priority 2013, dated 2017).

Assay [1] addresses soluble human BACE1 catalytic domain (Homo sapiens (Human), UniProt P56817). Nature of the assay: BACE1 HTRF FRET Assay. It counts as biochemical. The conditions noted are these: Ki calculated from IC50 using the Cheng-Prusoff equation; QSY7-APPswe-Eu substrate, pH 5.0. The source says: Na^+-Acetate pH 5.0; 1% Brij-35; Glycerol; Dimethyl Sulfoxide (DMSO); Recombinant human soluble BACE1 catalytic domain (>95% pure); APP Swedish mutant peptide substrate (QSY7-APP^swe-Eu): QSY7-[…]-Europium-amide.
A homogeneous time-resolved FRET assay can be used to determine IC50 values for inhibitors of the soluble human BACE1 catalytic domain. This assay monitors the increase of 620 nm fluorescence that resulted from BACE1 cleavage of an APPswedish APP^swe mutant peptide FRET substrate (QSY7-[…]-Europium-amide). This substrate contains an N-terminal QSY7 moiety that serves as a quencher of the C-terminal Europium fluorophore (620 nm Em). In the absence of enzyme activity, 620 nm fluorescence is low in the assay and increased linearly over 3 hours in the presence of uninhibited BACE1 enzyme Inhibition of BACE1 cleavage of the QSY7-APP^swe-Eu substrate by inhibitors is manifested as a suppression of 620 nm fluorescence.
Varying concentrations of inhibitors at 3× the final desired concentration in a volume of 10 ul are preincubated with purified human BACE1 catalytic domain (3 nM in 10 μl) for 30 minutes at 30° C. in reaction buffer containing 20 mM Na-Acetate pH 5.0, 10% glycerol, 0.1% Brij-35 and 7.5% DSMO. Reactions are initiated by addition of 10 μl of 600 nM QSY7-APP^swe-Eu substrate (200 nM final) to give a final reaction volume of 30 μl in a 384 well Nunc HTRF plate. The reactions are incubated at 30° C. for 1.5 hours. The 620 nm fluorescence is then read on a Rubystar HTRF plate reader (BMG Labtechnologies) using a 50 millisecond delay followed by a 400 millisecond acquisition time window. Inhibitor IC50 values are derived from non-linear regression analysis of concentration response curves. Ki values are then calculated from IC50 values using the Cheng-Prusoff equation using a previously determined […] of 8 μM for the QSY7-APP^swe-Eu substrate at BACE1.

Assay [2] deals with purified human autoBACE-2 (Homo sapiens (Human), UniProt Q9Y5Z0). Nature of the assay: BACE-2 Assay (BACE-HTRF assay). It counts as biochemical. The conditions noted are these: Ki calculated from IC50 using the Cheng-Prusoff equation; QSY7-EISEVNLDAEFC-Eu-amide substrate, pH 5.0; read-out: BACE2 Ki. As to the method:
Inhibitor IC50s at purified human autoBACE-2 are determined in a time-resolved endpoint proteolysis assay that measures hydrolysis of the QSY7-EISEVNLDAEFC-Eu-amide FRET peptide substrate (BACE-HTRF assay). BACE-mediated hydrolysis of this peptide results in an increase in relative fluorescence (RFU) at 620 nm after excitation with 320 nm light. Inhibitor compounds, prepared at 3× the desired final concentration in 1×BACE assay buffer (20 mM sodium acetate pH 5.0, 10% glycerol, 0.1% Brij-35) supplemented with 7.5% DMSO are pre-incubated with an equal volume of autoBACE-2 enzyme diluted in 1×BACE assay buffer (final enzyme concentration 1 nM) in black 384-well NUNC plates for 30 minutes at 30° C. The assay is initiated by addition of an equal volume of the QSY7-EISEVNLDAEFC-Eu-amide substrate (200 nM final concentration, Km=8 μM […] for autoBACE-2) prepared in 1×BACE assay buffer supplemented with 7.5% DMSO and incubated for 90 minutes at 30° C. DMSO is present at 5% final concentration in the assay. Following laser excitation of sample wells at 320 nm, the fluorescence signal at 620 nm is collected for 400 ms following a 50 μs delay on a RUBYstar HTRF plate reader (BMG Labtechnologies). Raw RFU data is normalized to maximum (1.0 nM BACE/DMSO) and minimum (no enzyme/DMSO) RFU values. IC50s are determined by nonlinear regression analysis (sigmoidal dose response, variable slope) of percent inhibition data with minimum and maximum values set to 0 and 100 percent respectively. Similar IC50s are obtained when using raw RFU data. The Ki values are calculated from the IC50 using the Cheng-Prusoff equation.

Chain of soluble human BACE1 catalytic domain (P56817 75-416): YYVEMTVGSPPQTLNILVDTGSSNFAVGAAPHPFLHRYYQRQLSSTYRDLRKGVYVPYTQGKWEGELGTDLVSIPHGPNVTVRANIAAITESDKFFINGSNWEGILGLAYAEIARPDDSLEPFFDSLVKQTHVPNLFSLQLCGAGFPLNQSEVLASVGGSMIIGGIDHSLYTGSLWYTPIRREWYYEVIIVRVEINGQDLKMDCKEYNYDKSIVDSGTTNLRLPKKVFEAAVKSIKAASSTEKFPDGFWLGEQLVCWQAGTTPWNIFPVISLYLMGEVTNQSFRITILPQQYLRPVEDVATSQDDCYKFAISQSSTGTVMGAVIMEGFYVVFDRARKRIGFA
Chain of purified human autoBACE-2 (Q9Y5Z0 63-473 limits assumed): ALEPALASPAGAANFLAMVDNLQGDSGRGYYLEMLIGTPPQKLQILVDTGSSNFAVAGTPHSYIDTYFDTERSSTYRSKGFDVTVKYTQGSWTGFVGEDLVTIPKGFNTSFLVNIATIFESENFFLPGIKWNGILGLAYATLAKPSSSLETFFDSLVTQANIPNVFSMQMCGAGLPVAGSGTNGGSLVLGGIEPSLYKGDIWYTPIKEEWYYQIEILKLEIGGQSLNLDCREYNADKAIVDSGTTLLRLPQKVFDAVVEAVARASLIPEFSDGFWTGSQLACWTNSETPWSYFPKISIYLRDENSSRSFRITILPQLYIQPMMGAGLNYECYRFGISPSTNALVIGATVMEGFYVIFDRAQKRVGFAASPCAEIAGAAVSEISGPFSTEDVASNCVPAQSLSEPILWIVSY

For `COc1ccc(C(=O)Nc2ccc(F)c([C@@]3(C)NC(=N)N(C)S(=O)(=O)C34CC4)c2)nc1` [Example 1a, N-{4-fluoro-3-[(8R)-6-imino-5,8-dimethyl-4,4-dioxido-4-thia-5,7-diazaspiro[2.5]oct-8-yl]phenyl}-5-methoxypyridine-2-carboxamide], the Ki was 18 nM in assay [1] and 17 nM in assay [2].

As for `CN1C(=N)N[C@](C)(c2cc(NC(=O)c3cn(C)nc3C(F)(F)F)ccc2F)C2(CC2)S1(=O)=O` [Example 1b, N-{4-fluoro-3-[(8R)-6-imino-5,8-dimethyl-4,4-dioxido-4-thia-5,7-diazaspiro[2.5]oct-8-yl]phenyl}-1-methyl-3-(trifluoromethyl)-1H-pyrazole-4-carboxamide], the figures for the Ki in assay [1] and in assay [2] were 4940 nM and 3250 nM, respectively.

As to `C#CCOc1ccc(C(=O)Nc2ccc(F)c([C@@]3(C)NC(=N)N(C)S(=O)(=O)C34CC4)c2)nc1` [Example 1c, N-{4-fluoro-3-[(8R)-6-imino-5,8-dimethyl-4,4-dioxido-4-thia-5,7-diazaspiro[2.5]oct-8-yl]phenyl}-5-(prop-2-yn-1-yloxy)pyridine-2-carboxamide], the values for the Ki in assay [1] and in assay [2] were 6 nM and 95 nM, respectively.

Regarding `CN1C(=N)N[C@](C)(c2cc(NC(=O)c3cnsn3)ccc2F)C2(CC2)S1(=O)=O` [Example 1d, N-{4-fluoro-3-[(8R)-6-imino-5,8-dimethyl-4,4-dioxido-4-thia-5,7-diazaspiro[2.5]oct-8-yl]phenyl}-1,2,5-thiadiazole-3-carboxamide], the Ki in assay [1] is 25 nM; in assay [2], 15 nM.

As for `COc1cnc(C(=O)Nc2ccc(F)c([C@@]3(C)NC(=N)N(C)S(=O)(=O)C34CC4)c2)cn1` [Example 1e], the results for the Ki in assay [1] and in assay [2] were 20 nM and 56 nM, respectively.

With `CN1C(=N)N[C@](C)(c2cc(NC(=O)c3ccc(C(F)(F)F)cn3)ccc2F)C2(CC2)S1(=O)=O` [Example 1f, N-{4-fluoro-3-[(8R)-6-imino-5,8-dimethyl-4,4-dioxido-4-thia-5,7-diazaspiro[2.5]oct-8-yl]phenyl}-5-(trifluoromethyl)pyridine-2-carboxamide], the Ki is 8 nM in assay [1] and 55 nM in assay [2].

In the case of `CN1C(=N)N[C@](C)(c2cc(NC(=O)c3ccc(C#N)cn3)ccc2F)C2(CC2)S1(=O)=O` [Example 1g, 5-cyano-N-{4-fluoro-3-[(8R)-6-imino-5,8-dimethyl-4,4-dioxido-4-thia-5,7-diazaspiro[2.5]oct-8-yl]phenyl}pyridine-2-carboxamide], the Ki in assay [1] is 3 nM; in assay [2], 17 nM.

Take `Cc1nc(C(=O)Nc2ccc(F)c([C@@]3(C)NC(=N)N(C)S(=O)(=O)C34CC4)c2)no1` [Example 1h, N-{4-fluoro-3-[(8R)-6-imino-5,8-dimethyl-4,4-dioxido-4-thia-5,7-diazaspiro[2.5]oct-8-yl]phenyl}-5-methyl-1,2,4-oxadiazole-3-carboxamide]: the Ki in assay [1] is 31 nM; in assay [2], 8 nM.

Consider `CN1C(=N)N[C@](C)(c2cc(NC(=O)c3ncc(C(F)(F)F)cn3)ccc2F)C2(CC2)S1(=O)=O` [Example 1i, N-{4-fluoro-3-[(8R)-6-imino-5,8-dimethyl-4,4-dioxido-4-thia-5,7-diazaspiro[2.5]oct-8-yl]phenyl}-5-(trifluoromethyl)pyrimidine-2-carboxamide], for which the inhibition constant (Ki) was 47 nM in assay [1] and 106 nM in assay [2].

On to `COc1cnc(C(=O)Nc2ccc(F)c([C@@]3(C)NC(=N)N(C)S(=O)(=O)C34CC4)c2)c(C)c1` [Example 1j], for which the figures for the Ki in assay [1] and in assay [2] were 22 nM and 10 nM, respectively.

With `Cc1cc(C#N)cnc1C(=O)Nc1ccc(F)c([C@@]2(C)NC(=N)N(C)S(=O)(=O)C23CC3)c1` [Example 1k, 5-cyano-N-{4-fluoro-3-[(8R)-6-imino-5,8-dimethyl-4,4-dioxido-4-thia-5,7-diazaspiro[2.5]oct-8-yl]phenyl}-3-methylpyridine-2-carboxamide], the values for the Ki in assay [1] and in assay [2] were 2 nM and 5 nM, respectively.

For the molecule `CN1C(=N)N[C@](C)(c2cc(NC(=O)c3ccn(C(F)F)n3)ccc2F)C2(CC2)S1(=O)=O` [Example 1l, 1-(difluoromethyl)-N-{4-fluoro-3-[(8R)-6-imino-5,8-dimethyl-4,4-dioxido-4-thia-5,7-diazaspiro[2.5]oct-8-yl]phenyl}-1H-pyrazole-3-carboxamide], the figures for the Ki in assay [1] and in assay [2] were 5 nM and 2 nM, respectively.

As for `CN1C(=N)N[C@](C)(c2cc(NC(=O)c3cn4ccc(C#N)cc4n3)ccc2F)C2(CC2)S1(=O)=O` [Example 1m, 7-cyano-N-{4-fluoro-3-[(8R)-6-imino-5,8-dimethyl-4,4-dioxido-4-thia-5,7-diazaspiro[2.5]oct-8-yl]phenyl}imidazo[1,2-a]pyridine-2-carboxamide], the Ki is 5500 nM in assay [1] and 1640 nM in assay [2].

Regarding `Cc1cc(C(=O)Nc2ccc(F)c([C@@]3(C)NC(=N)N(C)S(=O)(=O)C34CC4)c2)no1` [Example 1n, N-{4-fluoro-3-[(8R)-6-imino-5,8-dimethyl-4,4-dioxido-4-thia-5,7-diazaspiro[2.5]oct-8-yl]phenyl}-5-methylisoxazole-3-carboxamide], the values for the Ki in assay [1] and in assay [2] were 620 nM and 220 nM, respectively.

As for `CN1C(=N)N[C@](C)(c2cc(NC(=O)c3ncc(Cl)cc3F)ccc2F)C2(CC2)S1(=O)=O` [Example 1o, 5-chloro-3-fluoro-N-{4-fluoro-3-[(8R)-6-imino-5,8-dimethyl-4,4-dioxido-4-thia-5,7-diazaspiro[2.5]oct-8-yl]phenyl}pyridine-2-carboxamide], the Ki was 6 nM in assay [1] and 3 nM in assay [2].

As for `CN1C(=N)N[C@](C)(c2cc(NC(=O)c3cnc(C(F)(F)F)cn3)ccc2F)C2(CC2)S1(=O)=O` [Example 1p, 5-N-{4-fluoro-3-[(8R)-6-imino-5,8-dimethyl-4,4-dioxido-4-thia-5,7-diazaspiro[2.5]oct-8-yl]phenyl}-5-(trifluoromethyl)pyrazine-2-carboxamide], the figures for the Ki in assay [1] and in assay [2] were 58 nM and 346 nM, respectively.

`COc1cnc(C(=O)Nc2ccc(F)c([C@@]3(C)NC(=N)N(C)S(=O)(=O)C34CC4)c2)c(C)n1` [Example 1q, N-{4-fluoro-3-[(8R)-6-imino-5,8-dimethyl-4,4-dioxido-4-thia-5,7-diazaspiro[2.5]oct-8-yl]phenyl}-5-methoxy-3-methylpyrazine-2-carboxamide]: the results for the Ki in assay [1] and in assay [2] were 38 nM and 41 nM, respectively.

For the molecule `CN1C(=N)N[C@](C)(c2cc(NC(=O)c3ccc(F)cn3)ccc2F)C2(CC2)S1(=O)=O` [Example 1r, 5-fluoro-N-{4-fluoro-3-[(8R)-6-imino-5,8-dimethyl-4,4-dioxido-4-thia-5,7-diazaspiro[2.5]oct-8-yl]phenyl}pyridine-2-carboxamide], the Ki in assay [1] was 16 nM; in assay [2] it was 8 nM.

In the case of `CN1C(=N)N[C@](C)(c2cc(NC(=O)c3ccc(OC(F)F)cn3)ccc2F)C2(CC2)S1(=O)=O` [Example 1s, 5-(difluoromethoxy)-N-{4-fluoro-3-[(8R)-6-imino-5,8-dimethyl-4,4-dioxido-4-thia-5,7-diazaspiro[2.5]oct-8-yl]phenyl}pyridine-2-carboxamide], the figures for the Ki in assay [1] and in assay [2] were 8 nM and 46 nM, respectively.
